Test results taken from patent US20210283261A1, “Compositions and Methods for Treating ALK-Mediated Cancer” (ICAHN SCHOOL OF MEDICINE AT MOUNT SINAI, priority 2017, published 2021).

What follows are compounds tested against T1, NPM-ALK fusion protein (Homo sapiens, UniProt Q9UM73) (assay: Western blot of NPM-ALK fusion protein levels in SU-DHL-1 cells). Conditions: SU-DHL-1 cells, 30 nM, Western blot; read-out: ALK fusion protein degradation, SU-DHL-1 (30 nM).
T1 construct: endogenous in cells; host or cells: SU-DHL-1; the other entry of the earlier key: NPM1 (P06748, Nucleophosmin)
Assay type: cell-based
Procedure: Cells were cultured in a 37° C. incubator with 5% CO2.
Cells were washed with cold PBS once and lysed in 1× Laemmli loading buffer directly. […] Membrane was blocked in 5% milk in Tris-buffered saline and Tween 20 (TBST) for 1 h at room temperature, followed by incubation with a primary antibody overnight at 4° C., and a horseradish peroxidase (HRP)-conjugated secondary antibody for 1 h at room temperature. The membrane was imaged by a ChemiDoc MP imaging system (BIO-RAD). Antibodies against GAPDH (abeam), Phospho-ALK (Tyr1507), ALK (Cell Signaling Technology), Tubulin (Santa Cruz) were purchased commercially.
SU-DHL-1 suspension cells were seeded in 12-well plates at a density of 6×10^5/mL and treated with DMSO or indicated compounds at 30 nM or 100 nM for indicated time.
SU-DHL-1 cells were seeded in 12-well plates at a density of 4×10^5/mL and treated with DMSO or indicated serial dilutions of compounds for 16 h. The NPM-ALK fusion protein levels were determined by Western blot and normalized against GPADH (right panel).

T1 sequence (Q9UM73 with tags, fused parts or gaps): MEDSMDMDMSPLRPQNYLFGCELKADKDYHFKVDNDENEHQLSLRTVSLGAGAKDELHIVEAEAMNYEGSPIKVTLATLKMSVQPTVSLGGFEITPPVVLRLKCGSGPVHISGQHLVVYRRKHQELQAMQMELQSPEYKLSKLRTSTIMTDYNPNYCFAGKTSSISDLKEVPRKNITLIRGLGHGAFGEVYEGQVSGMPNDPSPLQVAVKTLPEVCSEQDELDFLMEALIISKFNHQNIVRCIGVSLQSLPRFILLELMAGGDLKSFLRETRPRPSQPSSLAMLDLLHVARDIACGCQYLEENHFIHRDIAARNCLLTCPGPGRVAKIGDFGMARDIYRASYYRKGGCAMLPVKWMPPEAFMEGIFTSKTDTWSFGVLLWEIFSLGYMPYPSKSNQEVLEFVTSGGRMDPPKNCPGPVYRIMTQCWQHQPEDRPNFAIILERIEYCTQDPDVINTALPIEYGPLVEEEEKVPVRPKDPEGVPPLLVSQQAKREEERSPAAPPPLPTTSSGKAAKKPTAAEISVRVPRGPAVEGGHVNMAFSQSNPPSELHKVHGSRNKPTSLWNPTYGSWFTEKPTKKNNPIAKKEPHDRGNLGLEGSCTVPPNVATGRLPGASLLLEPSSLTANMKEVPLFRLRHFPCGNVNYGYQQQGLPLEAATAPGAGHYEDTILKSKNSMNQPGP

| Dmax at 0.03 µM [%] | Structure (SMILES) |
| --- | --- |
| < 20 | Cc1cc(Nc2ncc(Cl)c(Nc3ccccc3S(=O)(=O)C(C)C)n2)c(OC(C)C)cc1C1CCN(CC(=O)NCCOCCOCCOCCOCCC(=O)N[C@H](C(=O)N2C[C@H](O)C[C@H]2C(=O)NCc2ccc(-c3scnc3C)cc2)C(C)(C)C)CC1 [CZ40-87, (2S,4R)-1-((S)-20-(tert-Butyl)-1-(4-(4-((5-chloro-4-((2-(isopropylsulfonyl)phenyl)amino)pyrimidin-2-yl)amino)-5-isopropoxy-2-methylphenyl)piperidin-1-yl)-2,18-dioxo-6,9,12,15-tetraoxa-3,19-diazahenicosan-21-oyl)-4-hydroxy-7V-(4-(4-methylthiazol-5-yl)benzyl)pyrrolidine-2-carboxamide] |
| 20 to 80 | Cc1cc(Nc2ncc(Cl)c(Nc3ccccc3S(=O)(=O)C(C)C)n2)c(OC(C)C)cc1C1CCN(CC(=O)NCCCCC(=O)N[C@H](C(=O)N2C[C@H](O)C[C@H]2C(=O)NCc2ccc(-c3scnc3C)cc2)C(C)(C)C)CC1 [CZ40-88, (2S,4R)-1-((S)-2-(5-(2-(4-(4-((5-Chloro-4-((2-(isopropylsulfonyl)phenyl)amino)pyrimidin-2-yl)amino)-5-isopropoxy-2-methylphenyl)piperidin-1-yl)acetamido)pentanamido)-3,3-dimethylbutanoyl)-4-hydroxy-N-(4-(4-methylthiazol-5-yl)benzyl)pyrrolidine-2-carboxamide] |
| 20 to 80 | Cc1cc(Nc2ncc(Cl)c(Nc3ccccc3S(=O)(=O)C(C)C)n2)c(OC(C)C)cc1C1CCN(CC(=O)NCCCCCC(=O)N[C@H](C(=O)N2C[C@H](O)C[C@H]2C(=O)NCc2ccc(-c3scnc3C)cc2)C(C)(C)C)CC1 [CZ40-89, (2S,4R)-1-((S)-2-(6-(2-(4-(4-((5-chloro-4-((2-(isopropylsulfonyl)phenyl)amino)pyrimidin-2-yl)amino)-5-isopropoxy-2-methylphenyl)piperidin-1-yl)acetamido)hexanamido)-3,3-dimethylbutanoyl)-4-hydroxy-N-(4-(4-methylthiazol-5-yl)benzyl)pyrrolidine-2-carboxamide] |
| < 20 | Cc1cc(Nc2ncc(Cl)c(Nc3ccccc3S(=O)(=O)C(C)C)n2)c(OC(C)C)cc1C1CCN(CC(=O)NCCCCCCC(=O)N[C@H](C(=O)N2C[C@H](O)C[C@H]2C(=O)NCc2ccc(-c3scnc3C)cc2)C(C)(C)C)CC1 [CZ40-90, (2S,4R)-1-((S)-2-(7-(2-(4-(4-((5-Chloro-4-((2-(isopropylsulfonyl)phenyl)amino)pyrimidin-2-yl)amino)-5-isopropoxy-2-methylphenyl)piperidin-1-yl)acetamido)heptanamido)-3,3-dimethylbutanoyl)-4-hydroxy-N-(4-(4-methylthiazol-5-yl)benzyl)pyrrolidine-2-carboxamide] |
| < 20 | Cc1cc(Nc2ncc(Cl)c(Nc3ccccc3S(=O)(=O)C(C)C)n2)c(OC(C)C)cc1C1CCN(CC(=O)NCCCCCCCCC(=O)N[C@H](C(=O)N2C[C@H](O)C[C@H]2C(=O)NCc2ccc(-c3scnc3C)cc2)C(C)(C)C)CC1 [CZ40-92, (2S,4R)-1-((S)-2-(9-(2-(4-(4-((5-Chloro-4-((2-(isopropylsulfonyl)phenyl)amino)pyrimidin-2-yl)amino)-5-isopropoxy-2-methylphenyl)piperidin-1-yl)acetamido)nonanaimdo)-3,3-dimethylbutanoyl)-4-hydroxy-N-(4-(4-methylthiazol-5-yl)benzyl)pyrrolidine-2-carboxamide] |

Continued, compound first:

| Structure (SMILES) | Dmax at 0.03 µM [%] |
| --- | --- |
| Cc1cc(Nc2ncc(Cl)c(Nc3ccccc3S(=O)(=O)C(C)C)n2)c(OC(C)C)cc1C1CCN(CC(=O)NCCCCNc2cccc3c2C(=O)N(C2CCC(=O)NC2=O)C3=O)CC1 (stereo not drawn) [CZ40-80, 2-(4-(4-((5-Chloro-4-((2-(isopropylsulfonyl)phenyl)amino)pyrimidin-2-yl)amino)-5-isopropoxy-2-methylphenyl)piperidin-1-yl)-N-(4-((2-(2,6-dioxopiperidin-3-yl)-1,3-dioxoisoindolin-4-yl)amino)butyl)acetamide] | 20 to 80 |
| Cc1cc(Nc2ncc(Cl)c(Nc3ccccc3S(=O)(=O)C(C)C)n2)c(OC(C)C)cc1C1CCN(CC(=O)NCCCCCNc2cccc3c2C(=O)N(C2CCC(=O)NC2=O)C3=O)CC1 (stereo not drawn) [CZ40-81, 2-(4-(4-((5-Chloro-4-((2-(isopropylsulfonyl)phenyl)amino)pyrimidin-2-yl)amino)-5-isopropoxy-2-methylphenyl)piperidin-1-yl)-N-(5-((2-(2,6-dioxopiperidin-3-yl)-1,3-dioxoisoindolin-4-yl)amino)pentyl)acetamide] | > 80 |
| Cc1cc(Nc2ncc(Cl)c(Nc3ccccc3S(=O)(=O)C(C)C)n2)c(OC(C)C)cc1C1CCN(CC(=O)NCCCCCCNc2cccc3c2C(=O)N(C2CCC(=O)NC2=O)C3=O)CC1 (stereo not drawn) [CZ40-82, 2-(4-(4-((5-Chloro-4-((2-(isopropylsulfonyl)phenyl)amino)pyrimidin-2-yl)amino)-5-isopropoxy-2-methylphenyl)piperidin-1-yl)-N-(6-((2-(2,6-dioxopiperidin-3-yl)-1,3-dioxoisoindolin-4-yl)amino)hexyl)acetamide] | > 80 |
| Cc1cc(Nc2ncc(Cl)c(Nc3ccccc3S(=O)(=O)C(C)C)n2)c(OC(C)C)cc1C1CCN(CC(=O)NCCCCCCCNc2cccc3c2C(=O)N(C2CCC(=O)NC2=O)C3=O)CC1 (stereo not drawn) [CZ40-83, 2-(4-(4-((5-Chloro-4-((2-(isopropylsulfonyl)phenyl)amino)pyrimidin-2-yl)amino)-5-isopropoxy-2-methylphenyl)piperidin-1-yl)-N-(7-((2-(2,6-dioxopiperidin-3-yl)-1,3-dioxoisoindolin-4-yl)amino)heptyl)acetamide] | > 80 |
| Cc1cc(Nc2ncc(Cl)c(Nc3ccccc3S(=O)(=O)C(C)C)n2)c(OC(C)C)cc1C1CCN(CC(=O)NCCCCCCCCNc2cccc3c2C(=O)N(C2CCC(=O)NC2=O)C3=O)CC1 (stereo not drawn) [CZ40-84, 2-(4-(4-((5-Chloro-4-((2-(isopropylsulfonyl)phenyl)amino)pyrimidin-2-yl)amino)-5-isopropoxy-2-methylphenyl)piperidin-1-yl)-N-(8-((2-(2,6-dioxopiperidin-3-yl)-1,3-dioxoisoindolin-4-yl)amino)octyl)acetamide] | 20 to 80 |
| Cc1cc(Nc2ncc(Cl)c(Nc3ccccc3S(=O)(=O)C(C)C)n2)c(OC(C)C)cc1C1CCN(CC(=O)NCCOCC(=O)N[C@H](C(=O)N2C[C@H](O)C[C@H]2C(=O)NCc2ccc(-c3scnc3C)cc2)C(C)(C)C)CC1 [CZ40-85, (2S,4R)-1-((S)-2-(2-(2-(2-(4-(4-((5-Chloro-4-((2-(isopropylsulfonyl)phenyl)amino)pyrimidin-2-yl)amino)-5-isopropoxy-2-methylphenyl)piperidin-1-yl)acetamido)ethoxy)acetamido)-3,3-dimethylbutanoyl)-4-hydroxy-N-(4-(4-methylthiazol-5-yl)benzyl)pyrrolidine-2-carboxamide] | < 20 |
| Cc1cc(Nc2ncc(Cl)c(Nc3ccccc3S(=O)(=O)C(C)C)n2)c(OC(C)C)cc1C1CCN(CC(=O)NCCOCCOCC(=O)N[C@H](C(=O)N2C[C@H](O)C[C@H]2C(=O)NCc2ccc(-c3scnc3C)cc2)C(C)(C)C)CC1 [CZ40-86, (2S,4R)-1-((S)-2-(tert-Butyl)-14-(4-(4-((5-chloro-4-((2-(isopropylsulfonyl)phenyl)amino)pyrimidin-2-yl)amino)-5-isopropoxy-2-methylphenyl)piperidin-1-yl)-4,13-dioxo-6,9-dioxa-3,12-diazatetradecanoyl)-4-hydroxy-N-(4-(4-methylthiazol-5-yl)benzyl)pyrrolidine-2-carboxamide] | < 20 |
